Usually EC50 stands for the concentration needed to bring the measured effect to its halfway point. In general, IC50 refers to the midpoint of a concentration-inhibition curve.

The values that follow come from PMC7118841 (Biomedicine & Pharmacotherapy, 2006).

Data set [1] relates to FluV A. As to conditions: read-out: EC50, FluV A; MTT method; cited from earlier work. On the technique in general: Tetrazolium dyes change colour on reduction, which living cells bring about.
The subject of data set [2] is RSV. As to conditions: read-out: EC50, RSV; MTT method; cited from earlier work.
A further data set relates to HEp-2. The note with it: read-out: IC50, cytotoxicity HEp-2; MTT method; cited from earlier work.
The next data set has as its system HMV-2. As to conditions: read-out: IC50, cytotoxicity HMV-2; MTT method; cited from earlier work.
The subject of another data set is MDCK. The note with it: read-out: IC50, cytotoxicity MDCK; MTT method; cited from earlier work.
Another data set relates to MDCK cells. The note with it: cited from earlier work.
The test system of a further data set is CDV. As to conditions: read-out: EC50, CDV; plaque reduction method; cited from earlier work. On the technique in general: Plaque reduction counts the foci of infection that form in a cell layer.
For the next data set, the system named is Vero. As to conditions: read-out: IC50, cytotoxicity Vero; MTT method; cited from earlier work.
The test system of another data set is FluV A (H1N1/PR8). The note with it: cited from earlier work; for appearance of lungs of infected mice: data not shown.
The subject of another data set is RSV-B (SM-61-48). The note with it: read-out: EC50, RSV-B (SM-61-48); MTT method; data from one experiment; cited from earlier work.
Another data set relates to DFV. The note with it: cited from earlier work; for EC50: read-out: EC50, DFV, MTT method.
For a further data set, the system named is PfluV 2. The note with it: read-out: EC50, PfluV 2; MTT method; cited from earlier work.
Another data set concerns SARS-V. It is filed as cell-based, SARS coronavirus. The note with it: read-out: EC50, SARS-V.
The subject of data set [3] is FluV A R-4 (HA Ile202Thr). As to conditions: read-out: EC50, MTT; strain R-4; cited from earlier work.
A further data set has as its system TGEV. It is filed as cell-based, transmissible gastroenteritis virus of swine. As to conditions: read-out: EC50, TGEV.
In data set [4] the test system is FluV A R-b (HA Lys189Asn). The note with it: read-out: EC50, MTT; strain R-b; cited from earlier work.
Data set [5] relates to FluV A R-c (HA Lys189Asn, Ile202Val). The note with it: read-out: EC50, MTT; strain R-c; cited from earlier work.
The subject of a further data set is HIV-1. The note with it: read-out: EC50, HIV-1; MTT method; cited from earlier work.
The subject of a further data set is FIPV. The format is cell-based, feline infectious peritonitis virus. The note with it: read-out: EC50, FIPV.
Data set [6] has as its system FluV A R-1 (HA Lys189Asn, Ile202Thr). As to conditions: read-out: EC50, Plaque reduction; strain R-1; cited from earlier work.
The test system is the same in data set [7]. As to conditions: read-out: EC50, MTT; strain R-1; cited from earlier work.
Data set [8] has as its system FluV A R-c (HA Lys189Asn, Ile202Val). The note with it: read-out: EC50, Plaque reduction; strain R-c; cited from earlier work.
Data set [9] has as its system FluV A (N3H2/Ishikawa and H1N1/PR8). The note with it: rhodamine-labeled virus, MDCK cells; 10 and 25 μM; cited from earlier work.
In data set [10] the test system is FluV A R-2 (HA Ile202Thr). As to conditions: read-out: EC50, MTT; strain R-2; cited from earlier work.
Data set [11] has as its system Ishikawa/AH3N2/(plaque purified) strain. The note with it: read-out: EC50, Plaque reduction; Parent strain; cited from earlier work.
Data set [12] relates to FluV A. The note with it: read-out: EC50 against FluV A; cited from earlier work.
Data set [13] relates to Ishikawa/AH3N2/(plaque purified) strain. As to conditions: read-out: EC50, MTT; Parent strain; cited from earlier work.
Data set [14] relates to FluV A R-b (HA Lys189Asn). The note with it: read-out: EC50, Plaque reduction; strain R-b; cited from earlier work.
The subject of data set [15] is FluV A R-2 (HA Ile202Thr). As to conditions: read-out: EC50, Plaque reduction; strain R-2; cited from earlier work.
For data set [16], the system named is FluV A R-4 (HA Ile202Thr). The note with it: read-out: EC50, Plaque reduction; strain R-4; cited from earlier work.
Data set [17] relates to FluV. The note with it: given either orally or intraperitoneally; cited from earlier work.
Data set [18] deals with FluV A binding to MDCK cells. As to conditions: 8–200 μM of compound during 1.5 hour incubation at 37 °C, moi 1; cited from earlier work.
Data set [19] has as its system syncytium formation between MOLT-4 cells (uninfected cells) and MOLT-4/IIIb cells (infected cells). The note with it: MOLT-4 and MOLT-4/IIIb cells; cited from earlier work.
For the next data set, the system named is CXCR4. As to conditions: monoclonal mouse antibody; cited from earlier work.
For another data set, the system named is gp-120. As to conditions: polyclonal mouse antibody; cited from earlier work.
In another data set the test system is CD4. The note with it: mouse antibody; cited from earlier work.
The test system of the next data set is HIV. The note with it: read-out: EC50, anti-HIV, MAGI test; HeLa CD4/LTR-β-Gal cells; cited from earlier work.
The subject of data set [20] is ortho- and paramyxoviruses, herpesviruses and retroviruses (HIV-1 and 2). The note with it: cited from earlier work.
Data set [21] relates to RSV. The note with it: cited from earlier work.
Data set [22] has as its system RSV. As to conditions: HeLa cells; compound after virus adsorption; cited from earlier work.
In data set [23] the test system is FluV-A. As to conditions: cited from earlier work.
Data set [24] has as its system RSV-A. As to conditions: cited from earlier work.
The subject of data set [25] is RSV-A. As to conditions: read-out: EC50 against RSV-A; compound present 1.5–3 hours; cited from earlier work.
The subject of data set [26] is FluV-A. The note with it: read-out: EC50 against FluV-A; compound present 1.5–3 hours; cited from earlier work.
Data set [27] concerns FluV. As to conditions: data not shown; cited from earlier work.
[28] abbreviates: single compound at 100 μM, untreated cells = 100%.

Where two headings read alike, the source gives them in different places.

As for `NC(=O)c1ncn([C@@H]2O[C@H](CO)[C@@H](O)[C@H]2O)n1` [Ribavirin, reference compound], the EC50 was 5 ± 2.8 µM in the data set with FluV A [1]; 3900 ± 3100 nM in the data set with RSV [2]; 74 ± 35 µM in the data set with CDV; 1.6 µM with RSV-B (SM-61-48); more than 100 µM in the data set on DFV; 14000 ± 4800 nM in the data set with PfluV 2. In addition, the IC50 with HEp-2 was 52.7 µM; in the data set on HMV-2 it was more than 100 µM; with MDCK, more than 200 µM; with Vero, 100 µM. The “Percent viability of cells” value in the data set on MDCK cells (setting [28]) was 107.2 ± 1.7%; with MDCK cells (single compound at 200 μM), 104.8 ± 3.8%; in the data set with MDCK cells (single compound at 400 μM), 102.8 ± 4.1%. The “appearance of lungs of infected mice” value with FluV A (H1N1/PR8) (40 mM ribavirin alone) is “swollen and reddened due to congestion”. In addition, in the data set with FluV A (H1N1/PR8) (80 mM ribavirin aerosol every 12 hours for 4 days), the “mice survived on the 9th day” value is 60%. For the same compound, the “survival at 14 days after the infection” value in the data set with FluV A (H1N1/PR8) (80 mM ribavirin alone) is 30%.

Take (iPrNH3)6H[PTi2W10O38(O2)2]H2O [PM-523]: the EC50 was 5.6 ± 2 µM with FluV A [1]; more than 50000 nM with SARS-V; 1300 ± 500 nM in the data set with RSV [2]; 79 ± 10.2 µM in data set [3]; 2500 ± 600 nM in the data set on TGEV; 63 ± 7 µM in data set [4]. Also, the EC50 was 80.3 ± 6.8 µM in data set [5]; 300 ± 100 nM with HIV-1; more than 32000 nM in the data set with FIPV; 74.5 ± 10.2 µM in [6]; 71.4 ± 6.8 µM in data set [7]; 7.3 ± 1.1 µM in the data set on CDV. Besides, the EC50 in [8] is 78.9 ± 9.4 µM; in [10], 67.8 ± 6.5 µM; in data set [11], 6.6 ± 0.8 µM; in the data set with FluV A [12], 2400 nM; in the data set on DFV it was more than 61.5 µM; in data set [13] it was 8.7 ± 1.2 µM. In addition, the EC50 in the data set on PfluV 2 is 2500 ± 1300 nM; in [14], 66.7 ± 6.2 µM; in data set [15] it was 73.6 ± 10.8 µM; in [16], 88.1 ± 9.9 µM. Further, the “Percent viability of cells” value was 81.1 ± 2.9% with MDCK cells (setting [28]), 89.3 ± 5.8% in the data set with MDCK cells (single compound at 200 μM) and 85.2 ± 3.5% in the data set on MDCK cells (single compound at 400 μM). For the same compound, the “dequenching of fluorescence (fusion of FluV A envelope with cell membrane)” value in data set [9] is “remarkably reduced”. Besides, in the data set on FluV A (H1N1/PR8) (2.4 mM PM-523 alone), the “appearance of lungs of infected mice” value was “swollen and reddened due to congestion”. In the data set with FluV A (H1N1/PR8) (4.8 mM PM-523 aerosol every 12 hours for 4 days, 10 LD50 FluV A), the “mice survived on the 9th day” value is given as “half”. Also, the “survival at 14 days after the infection” value in the data set on FluV A (H1N1/PR8) (4.8 mM PM-523 alone) was 20%. Also, the “antiviral activity against DFV” value with DFV is on record as “did not have antiviral activities”.

In the case of Ce2H[BW11Mn(H2O)O39] [HPB-2], in the data set with FluV [17], the “therapeutic effect against FluV infection in mice” value is “potent therapeutic effect”.

With K9H6(Ge2Ti6W18O77)16H2O [PM-504], the EC50 in the data set with SARS-V is 3500 ± 2400 nM; in the data set on TGEV, 1400 ± 500 nM; with FIPV, 400 ± 300 nM; in the data set on FluV A [12], 1300 nM. Besides, the “inhibition of the binding of FluV to MDCK cells (FACS)” value in [18] was “inhibited the binding”.

Turning to K10Na[(VO)3(SbW9O33)2]26H2O [PM-1001], the EC50 with FluV A [1] was 1.75 ± 1.6 µM; with SARS-V, 700 ± 400 nM; in the data set on RSV [2], less than 160 nM; in the data set with TGEV, 140 ± 100 nM; in the data set on HIV-1, 140 ± 170 nM; with FIPV, 200 ± 100 nM. In addition, the concentration for a half-maximal effect (EC50) in the data set on CDV was 5.7 ± 0.5 µM; with HIV it was 10 nM; in the data set with PfluV 2, 1100 ± 900 nM. The “inhibition of syncytium formation” value in data set [19] is on record as “inhibited syncytium formation”. For the same compound, the “inhibition of binding of anti-CRCX4 antibody to its target molecule” value with CXCR4 is “did not inhibit”. For the same compound, in the data set with gp-120, the “inhibition of binding of anti-gp120 antibody to gp-120” value is listed as “inhibited”. Besides, the “inhibition of binding of anti-CD4 antibody to its target molecule” value in the data set with CD4 is “did not inhibit”.

Take K11H[(VO)3(SbW9O33)2]27H2O [PM-1002]: the EC50 in the data set on FluV A [1] was 4 ± 1.7 µM; with SARS-V it was 250 ± 70 nM; in the data set with RSV [2] it was 750 ± 50 nM; in the data set on TGEV, 600 ± 400 nM; in the data set with HIV-1, 30 ± 10 nM; with CDV it was 2.8 ± 1 µM. For the same compound, the EC50 was 18 nM with HIV, 2 ± 1.4 µM with DFV and 750 ± 50 nM with PfluV 2. In addition, the “inhibition of syncytium formation” value in data set [19] is “inhibited syncytium formation”.

With [(Me3NH)8Si2W18Nb6O77]nH2O [HS-106], the IC50 is more than 200 µM in the data set with HEp-2, 20.7 µM in the data set with HMV-2, more than 200 µM with MDCK and 148 µM in the data set with Vero. Also, in [20], the antiviral activity result is listed as “broad spectrum antiviral activity”. Also, the anti-RSV activity result in the data set with RSV [21] was “most potent and selective anti-RSV activity”. Also, the EC50 in the data set with RSV-B (SM-61-48) was 4.5 µM.

Take [K10Fe4(H2O)2 (PW9O34)2]nH2O [HS-058]: in the data set on RSV [22], the “concentration inhibiting syncytium formation of RSV” value is 8.5 µM. The IC50 is more than 200 µM with HEp-2, 50 µM in the data set with HMV-2, more than 200 µM in the data set with MDCK and 50 µM in the data set with Vero. Besides, the “Inhibition of RNA and protein synthesis” value in the data set on FluV-A [23] and in the data set with RSV-A [24] was “Probably no” in each case. In the data set on FluV-A [23], the “Inhibition of fusion between infected and uninfected cells” value is recorded as “Unclear”. Moreover, the “Inhibition of fusion of virus envelope and cell membrane” value in the data set on RSV-A [24] is on record as “Unclear”. Further, the EC50 was more than 20 µM with RSV-A [25], 3.1 µM in the data set with RSV-B (SM-61-48) and more than 31 µM with FluV-A [26]. In the data set on FluV [27], the “concentration inhibiting hemolysis of chicken erythrocytes by FluV” value is 58 µM.
